Reference: patent US20230372434A1, “METHOD OF TREATING FIBROSIS WITH A COMBINATION THERAPY” (COHBAR, INC., priority 2020, published 2023)
Square brackets hold non-standard residues; d marks the D form. Primed or numbered codes have the meaning given here. Ends that are not written are not given here. PEG12′ = not defined here

Experiments:
[1] = system: established lung fibrosis induced by bleomycin in male C57BL/6 mice; assay: Therapeutic mouse model of idiopathic pulmonary fibrosis, peptide combined with nintedanib (Example 1); assay type: in vivo; details: peptide 5 mg/kg/day IP
Method: The effect of combining the peptides of Formula I with a second antifibrotic drug on the progression of established lung fibrosis were assessed by monitoring lung fibrosis, lung weight, inflammatory cells in bronchoalveolar lavage fluid (BALF), soluble collagen in BALF, cytokine secretion, and body weight change in a therapeutic mouse model of idiopathic pulmonary fibrosis. Lung fibrosis was induced in lungs of male C57BL/6 mice between the ages of 6 to 8 weeks by nasophayngeal administration of bleomycin (1.5U/kg using bleomycin clinical formulation diluted in PBS). A control group of animals were administered saline by the nasopharyngeal route (no-bleomycin control group). After one week, bleomycin-treated animals were randomized to treatment groups (N=10 per group) by body weight and treated daily with vehicle control, nintedanib (60 mg/kg/day PO), peptide (5 mg/kg/day by intraperitoneal injection), or the combination of nintedanib (60 mg/kg/day PO) and peptide (5 mg/kg/day by intraperitoneal injection). After 14 days of treatment (Day 21), lungs were removed and weighed. The post-caval lobe was separated and snap frozen. The lungs were flushed with Hanks Buffer and bronchoalveolar lavage fluid (BALF) was harvested from each animal Differential cell counts in BALF were obtained. Levels of pro-inflammatory cytokines in BALF were determined using a meso scale discovery (MSD) system. Slides were prepared from the remaining BALF leukocytes, fixed and stained with May Geimsa stain and the differential counts were recorded manually. BALF was evaluated for soluble collagen using a Sircol assay. Lungs were fixed in 10% neutral buffered formalin (NBF) for histopathological analysis. Fibrosis was assessed by histopathological analysis of H&E stained mouse lungs using an Ashcroft scoring system. Collagen deposition in lung tissue was assessed by histopathological analysis of Masson's Trichrome stained mouse lungs using a standard scoring system for severity.

[2] = system: established lung fibrosis induced by bleomycin in male C57BL/6 mice; assay: Therapeutic mouse model of idiopathic pulmonary fibrosis, peptides alone (Example 2); assay type: in vivo
Method: The effect of the peptides on the progression of established lung fibrosis were assessed by monitoring lung fibrosis, lung weight, inflammatory cells in bronchoalveolar lavage fluid (BALF), soluble collagen in BALF, cytokine secretion in BALF, and body weight change in a therapeutic mouse model of idiopathic pulmonary fibrosis. Lung fibrosis was induced in lungs of male C57BL/6 mice between the ages of 6 to 8 weeks by nasophayngeal administration of bleomycin (1.5 U/kg using bleomycin clinical formulation diluted in PBS). A control group of animals were administered saline by the nasopharyngeal route (no-bleomycin control group). After one week, bleomycin-treated animals were randomized to treatment groups (N=10 per group) by body weight and treated daily with vehicle control, nintedanib positive control (60 mg/kg/day PO) or peptide (5 or 15 mg/kg/day by intraperitoneal injection). After 14 days of treatment (Day 21), lungs were removed and weighed. The post-caval lobe was separated and snap frozen. The lungs were flushed with Hanks Buffer and bronchoalveolar lavage fluid (BALF) was harvested from each animal Total BALF leukocyte were counted. Slides were prepared from the remaining BALF leukocytes, fixed and stained with May Geimsa stain and the differential counts were recorded manually. BALF was evaluated for soluble collagen using a Sircol assay. Lungs were fixed in 10% neutral buffered formalin (NBF) for histopathological analysis. Fibrosis was assessed by histopathological analysis of H&E stained mouse lungs using an Ashcroft scoring system. Collagen deposition in lung tissue was assessed by histopathological analysis of Masson's Trichrome stained mouse lungs using a standard scoring system for severity.

[3] = BALF, Day 21, nintedanib 60 mg/kg/day PO, MSD
[4] = Day 21, nintedanib 60 mg/kg/day PO

Row | Substance | Mean (SEM) Ashcroft Score ([2]; Day 21, 5 mg/kg/day IP) | Mean (SEM) Collagen Content in BALF ([2]; Day 21, 5 mg/kg/day IP) | Mean (SEM) Collagen Deposition Score in Lung Tissue ([2]; Day 21, 5 mg/kg/day IP) | Mean (SEM) Normalized Lung Weight ([2]; Day 21, 5 mg/kg/day IP) | Mean (SEM) Number of Lymphocytes in BALF ([2]; Day 21, 5 mg/kg/day IP) | Mean (SEM) Number of Macrophages in BALF ([2]; Day 21, 5 mg/kg/day IP) | Mean (SEM) Number of Neutrophils in BALF ([2]; Day 21, 5 mg/kg/day IP) | Mean (SEM) Ashcroft Score ([2]; Day 21, 15 mg/kg/day IP) | Mean (SEM) Collagen Content in BALF ([2]; Day 21, 15 mg/kg/day IP) | Mean (SEM) Collagen Deposition Score in Lung Tissue ([2]; Day 21, 15 mg/kg/day IP) | Mean (SEM) Normalized Lung Weight ([2]; Day 21, 15 mg/kg/day IP) | Mean (SEM) Number of Lymphocytes in BALF ([2]; Day 21, 15 mg/kg/day IP) | Mean (SEM) Number of Macrophages in BALF ([2]; Day 21, 15 mg/kg/day IP) | Mean (SEM) Number of Neutrophils in BALF ([2]; Day 21, 15 mg/kg/day IP) | further results
1 | RVIRACLGVGLLGDL(dA)GK{PEG12} (RVIRACLGVGLLGDL[dA]GK(PEG12′); also: homodimer) [SEQ ID NO: 30] | 1.92 (0.21) | 0.071 (0.020) mg/mL | 1.67 (0.29) | 1.15 (0.03) | 1210 (664) | 5070 (1130) | 0 (0) | 2.00 (0.37) | 0.063 (0.007) mg/mL | 1.80 (0.33) | 1.22 (0.11) | 896 (254) | 3780 (559) | 122 (88) | Mean Pro-inflammatory Cytokine Level IFNγ [1, 3]: 0.037 pg/mL; Mean Pro-inflammatory Cytokine Level IL-1β [1, 3]: 0.03 pg/mL; Mean Pro-inflammatory Cytokine Level IL-6 [1, 3]: 64.6 pg/mL; Mean Pro-inflammatory Cytokine Level KC/GRO [1, 3]: 16.7 pg/mL; Mean Pro-inflammatory Cytokine Level MCP-1 [1, 3]: 7.59 pg/mL; Mean Pro-inflammatory Cytokine Level MIP-1α [1, 3]: 0.52 pg/mL; Mean Pro-inflammatory Cytokine Level TNFα [1, 3]: 2.85 pg/mL; Mean (SEM) Number of Lymphocytes in BALF [1, 4]: 8930 (3350); Mean (SEM) Number of Macrophages in BALF [1, 4]: 41700 (5740); Mean (SEM) Number of Neutrophils in BALF [1, 4]: 1830 (1080); Mean (SEM) Normalized Lung Weight ([1]; Day 21 after 14 days of daily treatment, nintedanib 60 mg/kg/day PO): 1.36 (0.10); Mean (SEM) Ashcroft Score ([1]; Day 21 after 14 days of daily treatment, nintedanib 60 mg/kg/day PO, H&E): 2.93 (0.33); Mean (SEM) Collagen Deposition Score in Lung Tissue ([1]; Day 21 after 14 days of daily treatment, nintedanib 60 mg/kg/day PO, Masson's Trichrome): 2.30 (0.26); Mean (SEM) Soluble Collagen Content in BALF ([1]; Day 21 after 14 days of daily treatment, nintedanib 60 mg/kg/day PO, Sircol assay): 0.067 (0.013) mg/mL
2 | RVIRACLGVGLLGDLAGK{PEG12} (RVIRACLGVGLLGDLAGK(PEG12′); also: homodimer, disulfide at Cys6) [SEQ ID NO: 36] | 2.65 (0.40) | 0.081 (0.010) mg/mL | 2.50 (0.37) | 1.19 (0.06) | 987 (316) | 5180 (1030) | 113 (60) | 3.33 (0.33) | 0.068 (0.008) mg/mL | 2.89 (0.35) | 1.32 (0.12) | 884 (442) | 6430 (930) | 165 (140) | –
3 | RVIRMCLGVGLLGDLAGK{PEG12} (RVIRMCLGVGLLGDLAGK(PEG12′); also: homodimer, disulfide at Cys6) [SEQ ID NO: 28] | – | – | – | – | – | – | – | 2.24 (0.25) | 0.080 (0.016) mg/mL | 2.00 (0.26) | 1.27 (0.05) | 1210 (233) | 6340 (792) | 261 (117) | –
